From the kinase profiling compilation of Christmann-Franck et al. (2016)

What was measured:
Experiment in all cases: radiometric filter-binding kinase assay, Kinase HotSpot
Settings in all cases: compound 0.5 µM; ATP 10 µM
EPHB2 (human) = EPHB2 (human) (UniProt P29323)
CSNK1A1 (human) = CSNK1A1 (human) (UniProt P48729)
TAOK3 (human) = TAOK3 (human) (UniProt Q9H2K8)
RPS6KA1 KD1 KD2 (human) = RPS6KA1 KD1 KD2 (human) (UniProt Q15418)
CDK3 CCNE1 (human) = CDK3 CCNE1 (human) (UniProt Q00526+P24864)
TEC (human) = TEC (human) (UniProt P42680)
TTK (human) = TTK (human) (UniProt P33981)
MARK1 (human) = MARK1 (human) (UniProt Q9P0L2)
CAMK1D (human) = CAMK1D (human) (UniProt Q8IU85)
ERBB4 (human) = ERBB4 (human) (UniProt Q15303)
[1] = target: JAK1 JH1 catalytic (human) (UniProt P23458)
INSRR (human) = INSRR (human) (UniProt P14616)
MAPK10 (human) = MAPK10 (human) (UniProt P53779)
HIPK1 (human) = HIPK1 (human) (UniProt Q86Z02)
MKNK2 (human) = MKNK2 (human) (UniProt Q9HBH9)
MATK (human) = MATK (human) (UniProt P42679)
NEK1 (human) = NEK1 (human) (UniProt Q96PY6)
CSNK1G2 (human) = CSNK1G2 (human) (UniProt P78368)
CSNK1G2 (human), sequence (P78368 whole entry, looked up): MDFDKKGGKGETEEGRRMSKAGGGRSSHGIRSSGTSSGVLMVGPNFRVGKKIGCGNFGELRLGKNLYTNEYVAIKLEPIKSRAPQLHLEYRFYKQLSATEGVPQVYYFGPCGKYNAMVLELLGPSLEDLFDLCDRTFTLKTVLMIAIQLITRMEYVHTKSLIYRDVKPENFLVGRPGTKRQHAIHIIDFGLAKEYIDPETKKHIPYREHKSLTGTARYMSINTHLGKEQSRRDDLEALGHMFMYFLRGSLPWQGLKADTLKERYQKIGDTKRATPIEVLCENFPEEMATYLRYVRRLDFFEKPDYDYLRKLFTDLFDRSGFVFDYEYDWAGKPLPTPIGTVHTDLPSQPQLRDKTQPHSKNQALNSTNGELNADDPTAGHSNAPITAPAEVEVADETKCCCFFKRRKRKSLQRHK

CHUK (human) = CHUK (human) (UniProt O15111)
CHUK (human), sequence (O15111 whole entry, looked up): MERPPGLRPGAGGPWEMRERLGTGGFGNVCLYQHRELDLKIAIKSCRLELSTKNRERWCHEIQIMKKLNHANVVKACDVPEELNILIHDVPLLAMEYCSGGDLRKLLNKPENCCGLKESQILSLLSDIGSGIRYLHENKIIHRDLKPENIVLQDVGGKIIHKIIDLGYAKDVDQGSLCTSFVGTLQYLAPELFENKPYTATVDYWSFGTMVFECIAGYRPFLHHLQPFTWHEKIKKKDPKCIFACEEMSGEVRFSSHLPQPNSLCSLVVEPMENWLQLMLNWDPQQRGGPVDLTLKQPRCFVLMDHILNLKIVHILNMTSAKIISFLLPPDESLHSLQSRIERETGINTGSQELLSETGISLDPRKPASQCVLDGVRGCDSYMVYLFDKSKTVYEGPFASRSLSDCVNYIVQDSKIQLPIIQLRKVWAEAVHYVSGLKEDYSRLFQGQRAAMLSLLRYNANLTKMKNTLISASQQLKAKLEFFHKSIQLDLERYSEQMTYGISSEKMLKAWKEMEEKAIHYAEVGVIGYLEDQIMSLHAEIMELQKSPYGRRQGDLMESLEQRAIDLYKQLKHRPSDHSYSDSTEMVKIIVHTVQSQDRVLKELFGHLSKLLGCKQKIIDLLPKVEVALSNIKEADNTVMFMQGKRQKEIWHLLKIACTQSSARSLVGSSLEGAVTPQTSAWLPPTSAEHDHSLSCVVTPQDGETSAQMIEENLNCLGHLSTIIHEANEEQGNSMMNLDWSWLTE

GRK7 (human) = GRK7 (human) (UniProt Q8WTQ7)
CAMKK2 (human) = CAMKK2 (human) (UniProt Q96RR4)
GRK5 (human) = GRK5 (human) (UniProt P34947)
GRK5 (human), sequence (P34947 whole entry, looked up): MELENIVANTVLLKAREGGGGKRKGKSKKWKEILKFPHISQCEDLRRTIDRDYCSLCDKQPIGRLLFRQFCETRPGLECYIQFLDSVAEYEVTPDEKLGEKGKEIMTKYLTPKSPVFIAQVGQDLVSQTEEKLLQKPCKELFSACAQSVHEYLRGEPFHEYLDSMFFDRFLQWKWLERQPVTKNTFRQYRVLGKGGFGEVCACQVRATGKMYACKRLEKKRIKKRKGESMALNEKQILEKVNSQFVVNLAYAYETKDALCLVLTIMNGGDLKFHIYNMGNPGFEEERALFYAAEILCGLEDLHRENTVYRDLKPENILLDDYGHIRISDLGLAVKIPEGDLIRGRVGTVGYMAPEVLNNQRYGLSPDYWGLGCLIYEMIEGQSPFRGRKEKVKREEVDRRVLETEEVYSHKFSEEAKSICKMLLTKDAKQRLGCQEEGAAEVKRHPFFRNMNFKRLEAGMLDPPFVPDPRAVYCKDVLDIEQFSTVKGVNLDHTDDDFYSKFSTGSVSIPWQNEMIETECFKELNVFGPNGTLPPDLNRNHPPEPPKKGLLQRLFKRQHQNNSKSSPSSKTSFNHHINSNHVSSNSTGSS

GRK6 (human) = GRK6 (human) (UniProt P43250)
GRK6 (human), sequence (P43250 whole entry, looked up): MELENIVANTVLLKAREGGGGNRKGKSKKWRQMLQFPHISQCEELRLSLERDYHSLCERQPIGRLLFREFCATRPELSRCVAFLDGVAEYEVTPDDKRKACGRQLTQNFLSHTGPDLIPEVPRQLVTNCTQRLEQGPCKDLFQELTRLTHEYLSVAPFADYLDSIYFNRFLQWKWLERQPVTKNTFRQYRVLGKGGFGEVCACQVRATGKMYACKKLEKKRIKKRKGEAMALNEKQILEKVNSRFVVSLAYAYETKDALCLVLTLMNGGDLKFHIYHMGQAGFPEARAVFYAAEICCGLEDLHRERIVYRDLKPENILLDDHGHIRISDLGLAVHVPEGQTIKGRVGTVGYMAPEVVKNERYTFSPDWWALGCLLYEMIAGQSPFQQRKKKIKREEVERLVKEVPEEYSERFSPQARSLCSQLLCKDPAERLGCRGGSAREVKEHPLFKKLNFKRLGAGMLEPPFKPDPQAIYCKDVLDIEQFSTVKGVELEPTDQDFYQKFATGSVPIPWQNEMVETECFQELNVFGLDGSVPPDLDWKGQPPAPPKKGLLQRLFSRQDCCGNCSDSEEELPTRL

PTK6 (human) = PTK6 (human) (UniProt Q13882)
AKT3 (human) = AKT3 (human) (UniProt Q9Y243)
TAOK2 (human) = TAOK2 (human) (UniProt Q9UL54)
EGFR (human) = EGFR (human) (UniProt P00533)
HIPK2 (human) = HIPK2 (human) (UniProt Q9H2X6)
PLK2 (human) = PLK2 (human) (UniProt Q9NYY3)
DYRK2 (human) = DYRK2 (human) (UniProt Q92630)
DYRK2 (human), sequence (Q92630 whole entry, looked up): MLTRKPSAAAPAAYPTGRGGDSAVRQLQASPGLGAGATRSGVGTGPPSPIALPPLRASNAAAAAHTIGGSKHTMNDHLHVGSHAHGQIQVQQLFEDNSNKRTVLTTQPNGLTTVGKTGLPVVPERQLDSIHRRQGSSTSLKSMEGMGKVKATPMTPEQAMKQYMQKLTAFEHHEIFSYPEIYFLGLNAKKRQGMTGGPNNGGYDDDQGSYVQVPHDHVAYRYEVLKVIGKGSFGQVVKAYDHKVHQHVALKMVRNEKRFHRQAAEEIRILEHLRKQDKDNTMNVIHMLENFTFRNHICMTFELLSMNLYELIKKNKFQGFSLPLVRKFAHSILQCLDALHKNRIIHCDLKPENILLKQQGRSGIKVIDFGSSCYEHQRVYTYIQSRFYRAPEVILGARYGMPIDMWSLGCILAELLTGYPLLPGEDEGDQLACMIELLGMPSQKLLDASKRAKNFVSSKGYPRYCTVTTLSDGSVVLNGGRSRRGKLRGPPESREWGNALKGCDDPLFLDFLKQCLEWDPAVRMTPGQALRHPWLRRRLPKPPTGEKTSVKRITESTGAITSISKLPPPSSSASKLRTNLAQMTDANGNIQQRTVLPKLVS

CAMK2D (human) = CAMK2D (human) (UniProt Q13557)
NUAK1 (human) = NUAK1 (human) (UniProt O60285)
NUAK1 (human), sequence (O60285 whole entry, looked up): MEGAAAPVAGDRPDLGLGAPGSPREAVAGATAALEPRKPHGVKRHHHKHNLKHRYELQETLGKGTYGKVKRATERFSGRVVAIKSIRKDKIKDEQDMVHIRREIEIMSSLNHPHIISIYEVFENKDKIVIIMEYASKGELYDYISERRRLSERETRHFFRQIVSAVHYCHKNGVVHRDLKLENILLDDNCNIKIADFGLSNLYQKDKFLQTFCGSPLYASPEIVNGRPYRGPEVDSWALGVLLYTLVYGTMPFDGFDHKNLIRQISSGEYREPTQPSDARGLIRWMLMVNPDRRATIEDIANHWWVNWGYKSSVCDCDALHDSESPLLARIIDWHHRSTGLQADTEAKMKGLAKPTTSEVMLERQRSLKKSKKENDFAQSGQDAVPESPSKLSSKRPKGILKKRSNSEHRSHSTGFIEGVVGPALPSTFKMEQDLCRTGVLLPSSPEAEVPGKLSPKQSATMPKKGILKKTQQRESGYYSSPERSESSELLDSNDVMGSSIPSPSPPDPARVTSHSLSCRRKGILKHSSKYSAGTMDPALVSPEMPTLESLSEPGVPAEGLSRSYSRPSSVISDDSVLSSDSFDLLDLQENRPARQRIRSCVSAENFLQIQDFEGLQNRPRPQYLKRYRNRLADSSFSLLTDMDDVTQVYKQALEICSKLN

PHKG1 (human) = PHKG1 (human) (UniProt Q16816)
CDC42BPA (human) = CDC42BPA (human) (UniProt Q5VT25)
CDK7 CCNH MNAT1 (human) = CDK7 CCNH MNAT1 (human) (UniProt P50613+P51948+P51946)
STK24 (human) = STK24 (human) (UniProt Q9Y6E0)
STK24 (human), sequence (Q9Y6E0 whole entry, looked up): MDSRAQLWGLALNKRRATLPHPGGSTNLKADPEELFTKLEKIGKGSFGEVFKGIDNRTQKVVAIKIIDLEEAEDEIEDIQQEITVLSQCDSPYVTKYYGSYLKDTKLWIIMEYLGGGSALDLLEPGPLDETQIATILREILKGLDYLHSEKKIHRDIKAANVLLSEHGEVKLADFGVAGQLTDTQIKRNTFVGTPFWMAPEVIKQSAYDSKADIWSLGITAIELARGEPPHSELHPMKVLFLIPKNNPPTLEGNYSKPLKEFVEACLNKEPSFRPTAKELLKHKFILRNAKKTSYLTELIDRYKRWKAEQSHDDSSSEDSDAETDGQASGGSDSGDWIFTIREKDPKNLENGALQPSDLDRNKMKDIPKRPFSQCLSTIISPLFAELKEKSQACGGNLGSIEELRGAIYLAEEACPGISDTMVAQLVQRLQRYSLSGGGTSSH

PAK6 (human) = PAK6 (human) (UniProt Q9NQU5)

CDK3 CCNE1 (human), sequence (P24864 whole entry, looked up): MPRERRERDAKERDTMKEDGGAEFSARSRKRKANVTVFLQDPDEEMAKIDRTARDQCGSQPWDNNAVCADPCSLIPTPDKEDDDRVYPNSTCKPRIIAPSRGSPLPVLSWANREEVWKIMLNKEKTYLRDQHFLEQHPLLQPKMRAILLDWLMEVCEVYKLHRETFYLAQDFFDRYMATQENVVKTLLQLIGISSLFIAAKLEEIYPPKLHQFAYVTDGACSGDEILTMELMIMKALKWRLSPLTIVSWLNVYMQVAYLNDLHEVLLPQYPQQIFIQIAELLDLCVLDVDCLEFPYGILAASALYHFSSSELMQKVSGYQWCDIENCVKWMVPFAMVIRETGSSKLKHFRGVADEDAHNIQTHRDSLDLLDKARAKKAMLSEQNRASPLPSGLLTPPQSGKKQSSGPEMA
CDK3 CCNE1 (human), sequence (Q00526 whole entry, looked up): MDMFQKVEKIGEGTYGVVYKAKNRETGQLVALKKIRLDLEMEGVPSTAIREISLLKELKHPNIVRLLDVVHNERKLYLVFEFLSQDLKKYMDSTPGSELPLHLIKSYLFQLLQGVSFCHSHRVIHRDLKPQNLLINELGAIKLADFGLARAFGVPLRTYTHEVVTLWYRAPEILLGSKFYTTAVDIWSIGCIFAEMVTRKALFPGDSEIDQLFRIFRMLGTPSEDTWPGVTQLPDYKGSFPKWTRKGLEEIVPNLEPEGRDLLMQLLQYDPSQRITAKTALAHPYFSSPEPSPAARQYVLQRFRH

| SMILES | residual activity (EPHB2 (human)) [%] | residual activity (CSNK1A1 (human)) [%] | residual activity (TAOK3 (human)) [%] | residual activity (RPS6KA1 KD1 KD2 (human)) [%] | residual activity (CDK3 CCNE1 (human)) [%] | residual activity (TEC (human)) [%] | residual activity (TTK (human)) [%] | residual activity (MARK1 (human)) [%] | residual activity (CAMK1D (human)) [%] | residual activity (ERBB4 (human)) [%] | residual activity [1] [%] | residual activity (INSRR (human)) [%] | residual activity (MAPK10 (human)) [%] | residual activity (HIPK1 (human)) [%] | residual activity (MKNK2 (human)) [%] | residual activity (MATK (human)) [%] | residual activity (NEK1 (human)) [%] | residual activity (CSNK1G2 (human)) [%] | residual activity (CHUK (human)) [%] | residual activity (GRK7 (human)) [%] | further results |
| --- | --- | --- | --- | --- | --- | --- | --- | --- | --- | --- | --- | --- | --- | --- | --- | --- | --- | --- | --- | --- | --- |
| CCCCc1c(-c2ccc(OC)cc2)[nH]c2nccnc12 | 88.8 | 92.9 | 103 | 89.8 | 83.8 | 134 | 87.9 | 92.9 | 97.9 | 109 | 67.1 | 83.2 | 97.2 | 109 | 99.3 | 101 | 86.9 | 92.5 | 97.3 | 94.1 | residual activity (CAMKK2 (human)): 79.1%; residual activity (GRK5 (human)): 105%; residual activity (GRK6 (human)): 88.3%; residual activity (PTK6 (human)): 30.4%; residual activity (AKT3 (human)): 102%; residual activity (TAOK2 (human)): 90.1%; residual activity (EGFR (human)): 103%; residual activity (HIPK2 (human)): 109%; residual activity (PLK2 (human)): 94.9%; residual activity (DYRK2 (human)): 92.9%; residual activity (CAMK2D (human)): 93.3%; residual activity (NUAK1 (human)): 25%; residual activity (PHKG1 (human)): 89.4%; residual activity (CDC42BPA (human)): 99.7%; residual activity (CDK7 CCNH MNAT1 (human)): 92.6%; residual activity (STK24 (human)): 87.3%; residual activity (PAK6 (human)): 96.8% |
| CC(C)(C)c1cc(C=C(C#N)C#N)cc(Br)c1O | 100 | 84.5 | 122 | 104 | 98.9 | 171 | 101 | 98.8 | 111 | 94 | 107 | 103 | 92.5 | 104 | 100 | 102 | 97.7 | 100 | 89.7 | 107 | residual activity (CAMKK2 (human)): 92.5%; residual activity (GRK5 (human)): 108%; residual activity (GRK6 (human)): 94.6%; residual activity (PTK6 (human)): 91.4%; residual activity (AKT3 (human)): 111%; residual activity (TAOK2 (human)): 96.5%; residual activity (EGFR (human)): 106%; residual activity (HIPK2 (human)): 110%; residual activity (PLK2 (human)): 92.6%; residual activity (DYRK2 (human)): 104%; residual activity (CAMK2D (human)): 96%; residual activity (NUAK1 (human)): 95.4%; residual activity (PHKG1 (human)): 96.7%; residual activity (CDC42BPA (human)): 101%; residual activity (CDK7 CCNH MNAT1 (human)): 98.5%; residual activity (STK24 (human)): 96.3%; residual activity (PAK6 (human)): 101% |
| Ic1cccc(CSc2nnc(-c3ccncc3)o2)c1 | 87.7 | 97 | 103 | 98.6 | 87.4 | 106 | 103 | 111 | 101 | 96.4 | 103 | 98 | 95.7 | 105 | 91.5 | 94.3 | 95.5 | 99.2 | 96.5 | 112 | residual activity (CAMKK2 (human)): 85.1%; residual activity (GRK5 (human)): 106%; residual activity (GRK6 (human)): 100%; residual activity (PTK6 (human)): 104%; residual activity (AKT3 (human)): 90.7%; residual activity (TAOK2 (human)): 105%; residual activity (EGFR (human)): 97.1%; residual activity (HIPK2 (human)): 102%; residual activity (PLK2 (human)): 101%; residual activity (DYRK2 (human)): 96.8%; residual activity (CAMK2D (human)): 96.8%; residual activity (NUAK1 (human)): 95.1%; residual activity (PHKG1 (human)): 105%; residual activity (CDC42BPA (human)): 98.4%; residual activity (CDK7 CCNH MNAT1 (human)): 96.7%; residual activity (STK24 (human)): 108%; residual activity (PAK6 (human)): 74% |
| COc1ccc(C(=O)Nc2sc3c(c2C(N)=O)CCCC3)cc1OC | 73.5 | 108 | 100 | 87 | 104 | 115 | 95.6 | 97.9 | 93.8 | 97.2 | 104 | 99.7 | 84.5 | 90.2 | 78.7 | 92.7 | 89.8 | 98.7 | 83.3 | 95.5 | residual activity (CAMKK2 (human)): 96.9%; residual activity (GRK5 (human)): 104%; residual activity (GRK6 (human)): 98.5%; residual activity (PTK6 (human)): 97.8%; residual activity (AKT3 (human)): 102%; residual activity (TAOK2 (human)): 97%; residual activity (EGFR (human)): 99.9%; residual activity (HIPK2 (human)): 107%; residual activity (PLK2 (human)): 106%; residual activity (DYRK2 (human)): 92%; residual activity (CAMK2D (human)): 104%; residual activity (NUAK1 (human)): 81.8%; residual activity (PHKG1 (human)): 94.3%; residual activity (CDC42BPA (human)): 81.8%; residual activity (CDK7 CCNH MNAT1 (human)): 99.9%; residual activity (STK24 (human)): 93.9%; residual activity (PAK6 (human)): 85.7% |
| COc1cc2ncnc(Nc3ccc(OCc4ccccc4)cc3)c2cc1OC | 93.9 | 105 | 91.7 | 90.2 | 96.3 | 106 | 96.8 | 103 | 104 | 9.19 | 101 | 99.9 | 84.5 | 104 | 88.1 | 97.5 | 104 | 98.4 | 95.1 | 101 | residual activity (CAMKK2 (human)): 99.7%; residual activity (GRK5 (human)): 105%; residual activity (GRK6 (human)): 104%; residual activity (PTK6 (human)): 37.9%; residual activity (AKT3 (human)): 103%; residual activity (TAOK2 (human)): 106%; residual activity (EGFR (human)): 21.3%; residual activity (HIPK2 (human)): 111%; residual activity (PLK2 (human)): 109%; residual activity (DYRK2 (human)): 111%; residual activity (CAMK2D (human)): 95.8%; residual activity (NUAK1 (human)): 94.8%; residual activity (PHKG1 (human)): 100%; residual activity (CDC42BPA (human)): 101%; residual activity (CDK7 CCNH MNAT1 (human)): 98.8%; residual activity (STK24 (human)): 104%; residual activity (PAK6 (human)): 95.4% |
